ChEMBL document CHEMBL1201862, “PubChem BioAssay data set” (2004)
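Tested at 5 concentrations; 48 h exposure; 96-well plates; endpoints linearly interpolated, else capped at highest concentration. Here, GI50 denotes the concentration required for 50% inhibition of growth.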 Active and inactive are the calls of the source. No stated cut-off is given here; in the data, active = GI50 up to about 1.1 µM and inactive = higher.

What was measured:
Assay in all cases: DTP human tumour cell line panel, 48 h
786-0 = test system: 786-0
A498 = test system: A498
A549 = test system: A549
ACHN = test system: ACHN
BT-549 = test system: BT-549
CAKI-1 = test system: CAKI-1
CCRF-CEM = test system: CCRF-CEM
COLO 205 = test system: COLO 205
DU-145 = test system: DU-145
EKVX = test system: EKVX
HCC 2998 = test system: HCC 2998
HCT-116 = test system: HCT-116
HCT-15 = test system: HCT-15
HOP-62 = test system: HOP-62
HOP-92 = test system: HOP-92
HT-29 = test system: HT-29
Hs-578T = test system: Hs-578T
IGROV-1 = test system: IGROV-1
K562 = test system: K562
KM12 = test system: KM12
LOX IMVI = test system: LOX IMVI
M14 = test system: M14
MCF7 = test system: MCF7
MDA-MB-231 = test system: MDA-MB-231
MDA-MB-435 = test system: MDA-MB-435
MDA-N = test system: MDA-N
MOLT-4 = test system: MOLT-4
NCI-H226 = test system: NCI-H226
NCI-H23 = test system: NCI-H23
NCI-H460 = test system: NCI-H460
NCI-H522 = test system: NCI-H522
OVCAR-4 = test system: OVCAR-4
OVCAR-5 = test system: OVCAR-5
OVCAR-8 = test system: OVCAR-8
PC-3 = test system: PC-3
RPMI-8226 = test system: RPMI-8226
RXF 393 = test system: RXF 393
SF-268 = test system: SF-268
SF-295 = test system: SF-295
SF-539 = test system: SF-539
SK-MEL-28 = test system: SK-MEL-28
SK-MEL-2 = test system: SK-MEL-2
SK-MEL-5 = test system: SK-MEL-5
SK-OV-3 = test system: SK-OV-3
SN12C = test system: SN12C
SNB-19 = test system: SNB-19
SNB-75 = test system: SNB-75
SR = test system: SR
SW-620 = test system: SW-620
T47D = test system: T47D
TK-10 = test system: TK-10
U-251 = test system: U-251
UACC-257 = test system: UACC-257
UACC-62 = test system: UACC-62
HL-60 = test system: HL-60
Malme-3M = test system: Malme-3M
NCI/ADR-RES = test system: NCI/ADR-RES
UO-31 = test system: UO-31

CCCCCCCCCCCCNC(=O)NCC(OCC)OCC
GI50 (786-0): > 10 µM (inactive) | GI50 (A498): > 10 µM (inactive) | GI50 (A549): > 10 µM (inactive) | GI50 (ACHN): > 10 µM (inactive) | GI50 (BT-549): > 10 µM (inactive) | GI50 (CAKI-1): > 10 µM (inactive) | GI50 (CCRF-CEM): > 10 µM (inactive) | GI50 (COLO 205): > 10 µM (inactive) | GI50 (DU-145): > 10 µM (inactive) | GI50 (EKVX): > 10 µM (inactive) | GI50 (HCC 2998): > 10 µM (inactive) | GI50 (HCT-116): > 10 µM (inactive) | GI50 (HCT-15): > 10 µM | GI50 (HOP-62): > 10 µM (inactive) | GI50 (HOP-92): > 10 µM (inactive) | GI50 (HT-29): > 10 µM (inactive) | GI50 (Hs-578T): > 10 µM (inactive) | GI50 (IGROV-1): > 10 µM (inactive) | GI50 (K562): > 10 µM (inactive) | GI50 (KM12): > 10 µM (inactive) | GI50 (LOX IMVI): > 10 µM (inactive) | GI50 (M14): > 10 µM (inactive) | GI50 (MCF7): > 10 µM (inactive) | GI50 (MDA-MB-231): > 10 µM (inactive) | GI50 (MDA-MB-435): > 10 µM (inactive) | GI50 (MDA-N): > 10 µM (inactive) | GI50 (MOLT-4): > 10 µM (inactive) | GI50 (NCI-H226): > 10 µM (inactive) | GI50 (NCI-H23): > 10 µM (inactive) | GI50 (NCI-H460): > 10 µM (inactive) | GI50 (NCI-H522): > 10 µM (inactive) | GI50 (OVCAR-4): > 10 µM (inactive) | GI50 (OVCAR-5): > 10 µM (inactive) | GI50 (OVCAR-8): > 10 µM (inactive) | GI50 (PC-3): > 10 µM (inactive) | GI50 (RPMI-8226): > 10 µM (inactive) | GI50 (RXF 393): > 10 µM (inactive) | GI50 (SF-268): > 10 µM (inactive) | GI50 (SF-295): > 10 µM (inactive) | GI50 (SF-539): > 10 µM (inactive) | GI50 (SK-MEL-28): > 10 µM (inactive) | GI50 (SK-MEL-2): > 10 µM (inactive) | GI50 (SK-MEL-5): > 10 µM (inactive) | GI50 (SK-OV-3): > 10 µM (inactive) | GI50 (SN12C): > 10 µM (inactive) | GI50 (SNB-19): > 10 µM (inactive) | GI50 (SNB-75): > 10 µM (inactive) | GI50 (SR): > 10 µM (inactive) | GI50 (SW-620): > 10 µM (inactive) | GI50 (T47D): > 10 µM (inactive) | GI50 (TK-10): > 10 µM (inactive) | GI50 (U-251): > 10 µM (inactive) | GI50 (UACC-257): > 10 µM (inactive) | GI50 (UACC-62): > 10 µM (inactive)

O=c1c(Cc2ccc(Cl)cc2)nnc2sc(-c3ccc(-c4ccc(F)c(Cl)c4)o3)nn12
GI50 (786-0): 71 µM (inactive) | GI50 (A498): 42.2 µM (inactive) | GI50 (A549): 51.3 µM (inactive) | GI50 (ACHN): 35.7 µM (inactive) | GI50 (BT-549): 78.2 µM (inactive) | GI50 (CAKI-1): 43 µM (inactive) | GI50 (CCRF-CEM): 45.7 µM (inactive) | GI50 (COLO 205): 57.3 µM (inactive) | GI50 (DU-145): > 100 µM (inactive) | GI50 (EKVX): 24.5 µM (inactive) | GI50 (HCC 2998): > 100 µM (inactive) | GI50 (HCT-116): 29.7 µM (inactive) | GI50 (HCT-15): 34.9 µM | GI50 (HL-60): 43.7 µM (inactive) | GI50 (HOP-62): > 100 µM (inactive) | GI50 (HOP-92): 58.7 µM (inactive) | GI50 (HT-29): 50.5 µM (inactive) | GI50 (Hs-578T): > 100 µM (inactive) | GI50 (IGROV-1): 72.3 µM (inactive) | GI50 (K562): 37.6 µM (inactive) | GI50 (KM12): 91.2 µM (inactive) | GI50 (LOX IMVI): 70.5 µM (inactive) | GI50 (M14): 64.6 µM (inactive) | GI50 (MCF7): 32.7 µM (inactive) | GI50 (MDA-MB-231): > 100 µM (inactive) | GI50 (MDA-MB-435): 82 µM (inactive) | GI50 (MDA-N): 95.3 µM (inactive) | GI50 (MOLT-4): 43.7 µM (inactive) | GI50 (Malme-3M): > 100 µM (inactive) | GI50 (NCI-H226): > 100 µM (inactive) | GI50 (NCI-H23): 44.5 µM (inactive) | GI50 (NCI-H460): 55 µM (inactive) | GI50 (NCI-H522): 62.1 µM (inactive) | GI50 (NCI/ADR-RES): 56.9 µM (inactive) | GI50 (OVCAR-4): 42.1 µM (inactive) | GI50 (OVCAR-5): 56.1 µM (inactive) | GI50 (OVCAR-8): 58.7 µM (inactive) | GI50 (PC-3): 57.1 µM (inactive) | GI50 (RPMI-8226): > 100 µM (inactive) | GI50 (RXF 393): > 100 µM (inactive) | GI50 (SF-268): 76.6 µM (inactive) | GI50 (SF-295): 88.9 µM (inactive) | GI50 (SF-539): > 100 µM (inactive) | GI50 (SK-MEL-28): > 100 µM (inactive) | GI50 (SK-MEL-2): 51.4 µM (inactive) | GI50 (SK-MEL-5): > 100 µM (inactive) | GI50 (SK-OV-3): > 100 µM (inactive) | GI50 (SN12C): 42.7 µM (inactive) | GI50 (SNB-19): > 100 µM (inactive) | GI50 (SW-620): 54.5 µM (inactive) | GI50 (T47D): 80.2 µM (inactive) | GI50 (TK-10): > 100 µM (inactive) | GI50 (U-251): 99.5 µM (inactive) | GI50 (UACC-257): 97.3 µM (inactive) | GI50 (UACC-62): 53.2 µM (inactive) | GI50 (UO-31): 33.6 µM (inactive)
